System: HEK293 cells
Assay: Preliminary screening as DNA vectors, GFP transfection of HEK293 cells
Type: cell-based
Conditions: amino lipid/DOPE liposome with 75 ng plasmid DNA (psin-EGFP-IRES-Puro); number of GFP-expressing cells divided by total nuclei (Hoechst)
How it was run: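 Lipid + DOPE liposomes (NaOAc, pH 5.6) complexed w/ 75 ng psin-EGFP-IRES-Puro, 30 min RT; added to 3-5×10^4 HEK293/well, 37° C. Hoechst 0.2 μg/mL at 20-24 h, imaged after further 20-24 h. Efficiency = GFP+ cells / total nuclei.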

SMILES | Absolute DNA transfection efficiency in HEK293 cells [%]
CCCCCCCCCCCCNc1nc(NCCN2CCOCC2)nc(SCCCCCCCCCC)n1 [S10N12 D2] | 3.7
CCCCCCCCCCCCCNc1nc(NCCCN2CCN(C)CC2)nc(SCCCCCCCC)n1 [S8N13 D9] | 27.9
CCCCCCCCCCCCCCCCCCSc1nc(NCCCN(C)C)nc(N(CCCCCCCCCCCC)CCCCCCCCCCCC)n1 [S18^2N12 D6] | 1.6
CCCCCCCCCCCCCCCNc1nc(NCCN2CCOCC2)nc(SCCCCCCCCC)n1 [S9N15 D2] | 7.3
CCCCCCCCCCCCSc1nc(NCCN(C)C)nc(SCCCCCC)n1 [S6S12 D1] | 6.3
CCCCCCCCSc1nc(NCCCN(C)C)nc(SCCCCCCCC)n1 [S8S8 D6] | 5.1
CCCCCCCCCCCCCCCCCCSc1nc(NCC2CCN(C)CC2)nc(N(CCCCCCCCCCCC)CCCCCCCCCCCC)n1 [S18^2N12 D10] | 0.4
CCCCCCCCCCCCCNc1nc(NCCN2CCN(C)CC2)nc(SCCCCCCCCCC)n1 [S10N13 D5] | 2.1
CCCCCCCCCCCCCCCCSc1nc(NCCCCCCCCCCCCCCC)nc(NCCCN2CCOCC2)n1 [S16N15 D8] | 0.0
CCCCCCCCCCSc1nc(NCCCCCCCCC)nc(NCCN(C)C)n1 [S10N9 D1] | 7.1
CCCCCCCCCCCCCCCNc1nc(NCCN(C)C)nc(SCCCCCCCCCCC)n1 [S11N15 D1] | 12.5
CCCCCCCCCCCCCCSc1nc(NCCCCCCCCCCC)nc(NCCN(CC)CC)n1 [S14N11 D7] | 8.6
CCCCCCCCCCCCCCCNc1nc(NCCN2CCCC2)nc(SCCCCCCCCCCCCCC)n1 [S14N15 D3] | 1.0
CCCCCCCCCCCCNc1nc(NCCN2CCOCC2)nc(SCCCCCCC)n1 [S7N12 D2] | 25.6
CCCCCCCCCCCCCNc1nc(NCCN2CCOCC2)nc(SCCCCCCCC)n1 [S8N13 D2] | 19.7
CCCCCCCCCCCCCCCCCCNc1nc(NCCCN(C)C)nc(SCCCCCCCCCCCC)n1 [S12N18 D6] | 0.6
CCCCCCCCCCCSc1nc(NCCCCCCCCC)nc(NCCN(C)C)n1 [S11N9 D1] | 12.1
CCCCCCCCCCCCCCCSc1nc(NCCN(CC)CC)nc(SCCCCCCC)n1 [S7S15 D7] | 5.0
CCCCCCSc1nc(NCCN2CCCCC2)nc(SCCCCCC)n1 [S6S6 D4] | 1.4
CCCCCCCCCNc1nc(NCCN(C)C)nc(SCCCCCCCC)n1 [S8N9 D1] | 33.6
CCCCCCCCCCCCCCCCNc1nc(NCCCN2CCN(C)CC2)nc(SCCCCCCCCCC)n1 [S10N16 D9] | 5.0
CCCCCCCCCCCNc1nc(NCCN2CCOCC2)nc(SCCCCCCC)n1 [S7N11 D2] | 31.1
CCCCCCCSc1nc(NCCN(C)C)nc(SCCCCCCC)n1 [S7S7 D1] | 7.9
CCCCCCCCCCCNc1nc(NCCN2CCN(C)CC2)nc(SCCCCCCC)n1 [S7N11 D5] | 43.7

SMILES | Absolute DNA transfection efficiency in HEK293 cells [%]
CCCCCCCCSc1nc(NCCCCCC)nc(NCCN2CCCC2)n1 [S8N6 D3] | 3.2
CCCCCCCCCCCCSc1nc(NCCCCCCCCC)nc(NCCN2CCCC2)n1 [S12N9 D3] | 7.0
CCCCCCCCCCCCCCCSc1nc(NCCN2CCOCC2)nc(SCCCCCC)n1 [S6S15 D2] | 8.4
CCCCCCCCCCCCCCCCCCSc1nc(NCCCCCCCCCCC)nc(NCCCN2CCN(C)CC2)n1 [S18N11 D9] | 2.9
CCCCCCCCCCCCN(CCCCCCCCCCCC)c1nc(NCCN(CC)CC)nc(SCCCCCCCCCC)n1 [S10^2N12 D7] | 0.7
CCCCCCCCCCCCCCCCCCNc1nc(NCCN(CC)CC)nc(SCCCCCC)n1 [S6N18 D7] | 5.2
CCCCCCCCCSc1nc(NCCN2CCN(C)CC2)nc(SCCCCCCC)n1 [S7S9 D5] | 12.5
CCCCCCCCCCCCN(CCCCCCCCCCCC)c1nc(NCCCN(C)C)nc(SCCCCCCC)n1 [S7^2N12 D6] | 0.6
CCCCCCCCCCCCCCCCSc1nc(NCCCCCCCCC)nc(NCCN2CCN(C)CC2)n1 [S16N9 D5] | 7.8
CCCCCCCCCCCSc1nc(NCCCCCC)nc(NCCCN(C)C)n1 [S11N6 D6] | 29.3
CCCCCCCCCCCCCCCCCCNc1nc(NCC2CCN(C)CC2)nc(SCCCCCCCC)n1 [S8N18 D10] | 9.6
CCCCCCCCCCCCCCCSc1nc(NCCCCCCCC)nc(NCCCN2CCOCC2)n1 [S15N8 D8] | 7.9
CCCCCCCCCCCCCCCSc1nc(NCCN(CC)CC)nc(N(CCCCCCCCCCCC)CCCCCCCCCCCC)n1 [S15^2N12 D7] | 0.2
CCCCCCCCCCCCCCSc1nc(NCCCCCC)nc(NCCN2CCOCC2)n1 [S14N6 D2] | 18.8
CCCCCCCCCCCCCNc1nc(NCCN(C)C)nc(SCCCCCCCCCCC)n1 [S11N13 D1] | 10.6
CCCCCCCCSc1nc(NCCCN(C)C)nc(SCCCCCCC)n1 [S7S8 D6] | 3.6
CCCCCCCCSc1nc(NCCN2CCN(C)CC2)nc(SCCCCCCC)n1 [S7S8 D5] | 11.2
CCCCCCCCCCCCCCCCCCSc1nc(NCCCCCCC)nc(NCCN2CCN(C)CC2)n1 [S18N7 D5] | 28.2
CCCCCCCCCCCNc1nc(NCCN2CCN(C)CC2)nc(SCCCCCCCCCC)n1 [S10N11 D5] | 7.2
CCCCCCCCCCCCCCCCSc1nc(NCCCCCCCCCCCCCCC)nc(NCCN2CCCCC2)n1 [S16N15 D4] | 2.6
CCCCCCCCSc1nc(NCCCCCC)nc(NCC2CCN(C)CC2)n1 [S8N6 D10] | 0.5
CCCCCCCCCCCCCCCCSc1nc(NCCCCCCCCCCC)nc(NCCN2CCN(C)CC2)n1 [S16N11 D5] | 9.5
CCCCCCCCSc1nc(NCCCCCCC)nc(NCCN2CCCC2)n1 [S8N7 D3] | 3.9
CCCCCCCCCCCSc1nc(NCCCCCCCCC)nc(NCCN2CCOCC2)n1 [S11N9 D2] | 13.6

SMILES | Absolute DNA transfection efficiency in HEK293 cells [%]
CCCCCCCCCCCCCCCCNc1nc(NCCN(C)C)nc(SCCCCCCCCCCCCCCC)n1 [S15N16 D1] | 1.3
CCCCCCCCCCCCN(CCCCCCCCCCCC)c1nc(NCCN2CCCC2)nc(SCCCCCCC)n1 [S7^2N12 D3] | 0.1
CCCCCCCCCCCCSc1nc(NCCN(CC)CC)nc(SCCCCCCCC)n1 [S8S12 D7] | 9.3
CCCCCCCCCCCCCCCCCCSc1nc(NCCCCCCCCCCCC)nc(NCC2CCN(C)CC2)n1 [S18N12 D10] | 5.3
CCCCCCCCCCCCCCSc1nc(NCCCCCCCCCCCCC)nc(NCCN2CCN(C)CC2)n1 [S14N13 D5] | 1.9
CCCCCCCCCCSc1nc(NCCCCCC)nc(NCCN(C)C)n1 [S10N6 D1] | 6.9
CCCCCCCCCCCNc1nc(NCCN2CCCCC2)nc(SCCCCCCCCC)n1 [S9N11 D4] | 8.3
CCCCCCCCCCCCCCCNc1nc(NCCCN2CCN(C)CC2)nc(SCCCCCCCCCCCCCCC)n1 [S15N15 D9] | 0.5
CCCCCCCCCCCCCCCCNc1nc(NCCN2CCCC2)nc(SCCCCCCCCCCC)n1 [S11N16 D3] | 13.8
CCCCCCCCCCCCCNc1nc(NCCCN(C)C)nc(SCCCCCCCCCC)n1 [S10N13 D6] | 7.9
CCCCCCCCCCCCNc1nc(NCCCN2CCOCC2)nc(SCCCCCCCCCC)n1 [S10N12 D8] | 5.3
CCCCCCCCCCCCCCCCNc1nc(NCCCN2CCN(C)CC2)nc(SCCCCCCCCCCCC)n1 [S12N16 D9] | 0.4
CCCCCCNc1nc(NCCCN2CCOCC2)nc(SCCCCCC)n1 [S6N6 D8] | 0.0
CCCCCCCCCCCCCCCSc1nc(NCCN2CCN(C)CC2)nc(SCCCCCC)n1 [S6S15 D5] | 13.7
CCCCCCCCCCCCCCCCCCSc1nc(NCCCN2CCOCC2)nc(SCCCCCC)n1 [S6S18 D8] | 15.9
CCCCCCCCCCCCCCCCCCSc1nc(NCCCCCCC)nc(NCCN2CCCC2)n1 [S18N7 D3] | 15.6
CCCCCCCCCCCCCNc1nc(NCCN2CCOCC2)nc(SCCCCCCCCCCCC)n1 [S12N13 D2] | 0.0
CCCCCCCCCCCCN(CCCCCCCCCCCC)c1nc(NCC2CCN(C)CC2)nc(SCCCCCCC)n1 [S7^2N12 D10] | 0.5
CCCCCCCCCCCCCCCCCCNc1nc(NCCN2CCCC2)nc(SCCCCCCCCCCCCCC)n1 [S14N18 D3] | 1.7
CCCCCCCCCCCCCCCCSc1nc(NCCN2CCCCC2)nc(SCCCCCCC)n1 [S7S16 D4] | 10.9
CCCCCCCCCCCCCCCCCCSc1nc(NCCCN2CCOCC2)nc(N(CCCCCCCCCCCC)CCCCCCCCCCCC)n1 [S18^2N12 D8] | 0.0
CCCCCCCCCCCCNc1nc(NCCN2CCCCC2)nc(SCCCCCCCCCC)n1 [S10N12 D4] | 4.7
CCCCCCCCCCCCCCCSc1nc(NCCCCCCCCCCCCC)nc(NCCN2CCCCC2)n1 [S15N13 D4] | 0.0

— US20230123334A1, “AMINO LIPID COMPOUND, PREPARATION METHOD THEREFOR, AND APPLICATION THEREOF” (SHENZHEN SHENXIN BIOTECHNOLOGY CO., LTD., priority 2020, published 2023)
